10 compounds from US12152029B2, “Crystalline forms of a MAGL inhibitor” (H. Lundbeck A/S, priority 2021, dated 2024) can be followed below.

Holding throughout (type): physicochemical
The nature of data set [1]: Solid form conversion of solvates on heating, drying or storage (XRPD).
Data set [2] in a line: Dynamic vapour sorption (DVS). The note with it: for water uptake up to 90% RH / hygroscopicity by DVS analysis: 25° C.; for water uptake up to 90% RH: 0% RH to 90% RH; for hygroscopicity by DVS analysis: up to 90% RH; for Hygroscopicity in DVS, uptake at 90% RH: Table 3, 90% RH. How it is done:
Dynamic vapour sorption (DVS) was measured using a SMS DVS Intrinsic moisture sorption analyser changing the relative humidity from 0% RH to 90% RH. The sample temperature was maintained at 25° C. The humidity was controlled by mixing streams of dry and wet nitrogen, with a total flow rate of 200 ml/min. The relative humidity was measured by a calibrated Rotronic probe (dynamic range of 1.0-100% RH), located near the sample. The weight change of the sample as a function of % RH was constantly monitored by a balance.
Typically, 5-30 mg of sample was placed in a tared mesh stainless steel basket under ambient conditions. The sample was loaded and unloaded at 40% RH and 25° C. (typical room conditions).

Data set [3] is described as follows: Stability of HCl salt forms at accelerated (elevated) conditions. The note with it: for Stability at elevated conditions: Table 3. How it is done:
To further elucidate differences between the hydrochloride salt forms, their stability at accelerated conditions and their hygroscopicity was measured. The data are summarized in Table 3 together with the observations reported in Example 20.

Data set [4] can be described thus: Competitive slurry experiments between different forms of Compound (I) HCl salt. How it is done:
Competitive slurry experiments between different form of Compound (I) HCl salt were performed to elucidate the relative thermodynamic stability between unsolvated crystalline forms of interest.
The resulting slurries were stirred for 3 hours to approach equilibrium conditions at either 5 or 50° C., 500 rpm. The following solvents and solvent combinations were utilized: EtOAc, MIBK, THF, MeCN, MeOH, and Acetone.
This dry powder mixture was mixed in a gyroscopic Turbula mixer for 2 hours. Then 50 mg aliquots of the mixture were weighed into HPLC vials and 0.5 mL of the above saturated solutions were added. The resulting suspensions were then stirred for 7 days.
The above competitive slurries were sampled after 1 and 7 days. The samples taken after 1 day were air dried and analyzed with XRPD. The samples taken after 7 days were first analyzed in wet state (covered with a Kapton film) in the XRPD and then subjected to air drying and analyzed again.

A short description of data set [5]: Competitive slurry experiments between Compound (I) form 1 and form 7. The settings on record: slurry in methanol or ethanol at 5° C., room temperature and 50° C. for one week. As for the experimental part: The relative thermodynamic stability of Compound (I) form 1 and Compound (I) form 7 was elucidated using competitive slurry experiments as detailed in the following.
Step 1: Compound (I) form 1 (150 mg) and Compound (I) form 7 (150 mg) were mixed in a 20 mL vial. 40 mg (each) of this physical mixture was placed into six 2 mL vials.
Step 2: Using the remaining 60 mg of the physical mixture, saturated solutions with methanol and ethanol, respectively, were produced. The saturated solutions were filtered off.
Step 3: 10 volumes ([…]) of each saturated solution were added to each of the six 2 mL vials mentioned in step 1.
Step 4: One vial for each solvent was kept at 5° C., room temperature and 50° C. for one week.
XRPD analysis carried out on the solids yielded a pattern substantially similar to FIG. 1 for all six vials.

The mark [6] stands for this setting: DVS, listed as Compound (I) HCl form 2.
Where [7] appears, read: DVS, listed as Compound (I) HCl form 4.
Where [8] appears, read: DVS, listed as Compound (I) HCl form 5.
The mark [9] stands for this setting: DVS, listed as Compound (I) HCl form 6.

With `C1COCCO1.O=C(O)c1ccn(C(=O)N2CCC3(CCCN3Cc3ccc(C(F)(F)F)cc3N3CCCC3)CC2)n1` [Compound (I) 1,4-dioxane solvate form 1, 1-(1-(2-(pyrrolidin-1-yl)-4-(trifluoromethyl)benzyl)-1,8-diazaspiro[4.5]decane-8-carbonyl)-1H-pyrazole-3-carboxylic acid 1,4-dioxane solvate form 1], in data set [1] (two hours in a vacuum oven at room temperature), the “solid form change upon drying” value is “transforms into Compound (I) form 1 upon drying”.

For the compound `CC1CCCO1.Cl.O=C(O)c1ccn(C(=O)N2CCC3(CCCN3Cc3ccc(C(F)(F)F)cc3N3CCCC3)CC2)n1` [Compound (I) HCl salt 2-MeTHF solvate], the “solid form change upon storage” value in data set [1] (40° C./75% RH for 7 days) was “transformed into Compound (I) HCl Form 2”. Further, the “solid form change upon drying” value in data set [1] (100° C. for 10 minutes) is reported as “transformed into Compound (I) HCl salt form 4”.

Turning to `Cl.O=C(O)c1ccn(C(=O)N2CCC3(CCCN3Cc3ccc(C(F)(F)F)cc3N3CCCC3)CC2)n1` [Compound (I) HCl salt MIBK solvate], the “solid form change upon drying” value in data set [1] (drying the solid (conditions not given)) is “transforms into Compound (I) HCl salt form 2 upon drying”.

For the compound `Cl.O=C(O)c1ccn(C(=O)N2CCC3(CCCN3Cc3ccc(C(F)(F)F)cc3N3CCCC3)CC2)n1` [Compound (I) HCl salt form 2, 1-(1-(2-(pyrrolidin-1-yl)-4-(trifluoromethyl)benzyl)-1,8-diazaspiro[4.5]decane-8-carbonyl)-1H-pyrazole-3-carboxylic acid HCl salt form 2], in data set [2] (DVS), the “water uptake compared with the other HCl salt forms” value was “lowest water uptake”. In data set [2] (setting [6]), the “water uptake up to 90% RH” value was 0.5 % wt and the “hygroscopicity by DVS analysis” value is reported as “slightly hygroscopic”. Further, the “Hygroscopicity in DVS, uptake at 90% RH” value in data set [2] (listed as Form 2) was “(0.5 wt %”. In data set [3] (listed as Form 2), the “Stability at elevated conditions” value is recorded as “No change”. Moreover, the “stability compared with the other HCl salt forms” value in data set [3] (accelerated conditions) was “superior stability over Compound (I) HCl salt form 5 and form 6”.

Turning to `Cl.O=C(O)c1ccn(C(=O)N2CCC3(CCCN3Cc3ccc(C(F)(F)F)cc3N3CCCC3)CC2)n1` [Compound (I) HCl salt form 4, 1-(1-(2-(pyrrolidin-1-yl)-4-(trifluoromethyl)benzyl)-1,8-diazaspiro[4.5]decane-8-carbonyl)-1H-pyrazole-3-carboxylic acid HCl salt form 4], in data set [2] (setting [7]), the “water uptake up to 90% RH” value amounted to 1.4 % wt and the “hygroscopicity by DVS analysis” value is “slightly hygroscopic”. Besides, the “Hygroscopicity in DVS, uptake at 90% RH” value in data set [2] (listed as Form 4) is listed as “(1.4 wt %”. In data set [3] (listed as Form 4), the “Stability at elevated conditions” value is “No change”.

As for `Cl.O=C(O)c1ccn(C(=O)N2CCC3(CCCN3Cc3ccc(C(F)(F)F)cc3N3CCCC3)CC2)n1` [Compound (I) HCl salt form 5], in data set [2] (setting [8]), the “water uptake up to 90% RH” value came to 9.2 % wt and the “hygroscopicity by DVS analysis” value is recorded as “moderately hygroscopic”. For the same compound, the “Hygroscopicity in DVS, uptake at 90% RH” value in data set [2] (listed as Form 5) was “(9.2 wt %”.

For `Cl.O=C(O)c1ccn(C(=O)N2CCC3(CCCN3Cc3ccc(C(F)(F)F)cc3N3CCCC3)CC2)n1` [Compound (I) HCl salt form 6], in data set [2] (setting [9]), the “water uptake up to 90% RH” value amounted to 3.1 % wt and the “hygroscopicity by DVS analysis” value is “moderately hygroscopic”. In addition, the “Hygroscopicity in DVS, uptake at 90% RH” value in data set [2] (listed as Form 6) is given as “(3.1 wt %”.

On to `Cl.O=C(O)c1ccn(C(=O)N2CCC3(CCCN3Cc3ccc(C(F)(F)F)cc3N3CCCC3)CC2)n1` [Compound (I) HCl salt], for which the “XRPD ‘dry’ after 1 day” value in data set [4] (5 ° C., Acetone) is listed as “HCl salt Form 4”; in data set [4] (5 ° C., EtOAc), “HCl salt Form 2”; in data set [4] (5 ° C., MeCN), “HCl salt Form 5”; in data set [4] (5 ° C., THF), “HCl salt Form 4”; in data set [4] (50 ° C., Acetone), “HCl salt Form 2”; in data set [4] (50 ° C., EtOAc), “HCl salt Form 2”. For the same compound, the “XRPD ‘dry’ after 1 day” value is “HCl salt Form 5” in data set [4] (50 ° C., MeCN) and “HCl salt Form 4” in data set [4] (50 ° C., THF). Besides, the “XRPD ‘dry’ after 7 days” value is listed as “HCl salt Form 4” in data set [4] (5 ° C., Acetone); “HCl salt Form 2” in data set [4] (5 ° C., EtOAc); “HCl salt Form 5” in data set [4] (5 ° C., MeCN); “HCl salt Form 4” in data set [4] (5 ° C., THF); “HCl salt Form 2” in data set [4] (50 ° C., Acetone); “HCl salt Form 2” in data set [4] (50 ° C., EtOAc). Also, the “XRPD ‘dry’ after 7 days” value in data set [4] (50 ° C., MeCN) was “HCl salt Form 5”; in data set [4] (50 ° C., THF), “HCl salt Form 4”. Further, the “XRPD ‘wet’ (Kapton film) after 7 days” value in data set [4] (5 ° C., Acetone) is “metastable solvate”; in data set [4] (5 ° C., EtOAc) it was “metastable solvate”; in data set [4] (5 ° C., MIBK), “metastable solvate”; in data set [4] (5 ° C., MeCN), “metastable solvate”; in data set [4] (5 ° C., MeOH), “metastable solvate”; in data set [4] (5 ° C., THF), “metastable solvate”. For the same compound, the “XRPD ‘wet’ (Kapton film) after 7 days” value in data set [4] (50 ° C., Acetone) is “metastable solvate”; in data set [4] (50 ° C., EtOAc), “metastable solvate”; in data set [4] (50 ° C., MIBK), “metastable solvate”; in data set [4] (50 ° C., MeCN), “metastable solvate”; in data set [4] (50 ° C., MeOH), “metastable solvate”; in data set [4] (50 ° C., THF), “metastable solvate”.

As to `CC(C)=O.O=C(O)c1ccn(C(=O)N2CCC3(CCCN3Cc3ccc(C(F)(F)F)cc3N3CCCC3)CC2)n1` [Compound (I) acetone solvate, 1-(1-(2-(pyrrolidin-1-yl)-4-(trifluoromethyl)benzyl)-1,8-diazaspiro[4.5]decane-8-carbonyl)-1H-pyrazole-3-carboxylic acid acetone solvate], the “solid form change upon heating” value in data set [1] (heating for 2 min at 175° C.) is reported as “transforms into Compound (I) form 1 at elevated temperature”.

Consider `O=C(O)c1ccn(C(=O)N2CCC3(CCCN3Cc3ccc(C(F)(F)F)cc3N3CCCC3)CC2)n1` [Compound (I) form 1, 1-(1-(2-(pyrrolidin-1-yl)-4-(trifluoromethyl)benzyl)-1,8-diazaspiro[4.5]decane-8-carbonyl)-1H-pyrazole-3-carboxylic acid], for which, in data set [2] (DVS), the “water uptake up to 90% RH” value was less than 1% and the “hygroscopicity by DVS analysis” value was “largely non-hygroscopic”. Besides, the “solid form by XRPD analysis after DVS analysis” value in data set [2] (after DVS cycle) was “still Compound (I) form 1”. Also, the relative thermodynamic stability result in data set [5] is “more thermodynamically stable than Compound (I) form 7 at all temperatures tested”. Besides, the relative thermodynamic stability entry in data set [5] (listed as 1-(1-(2-(pyrrolidin-1-yl)-4-(trifluoromethyl)benzyl)-1,8-diazaspiro[4.5]decane-8)) is “thermodynamically stable”.
